Test results from US4292317A, “1,4-Dihydro-quinoline-3-carboxylic acid derivatives, process for their preparation and compositions containing them” (Laboratorie Roger Bellon, priority 1977, dated 1981).
Values after ≈ are worked out from the molar mass of the structure shown. Where two headings read alike, the source gives them in different places.

How the values were obtained:
Assay type in all cases: cell-based
Esch. coli 95 I.S.M. = test: M.I.C. in vitro, nutrient agar dilution; conditions: Escherichia coli, 18 h, read-out: M.I.C.
Procedure: (§1) After sterilisation at 120° C., the pH was 6.8.
(§2) The minimum inhibitory concentrations (M.I.C.) were determined by dilution of the test compounds in this mixture, the concentration ranging from 0.05 to 100 μg/cm^3 in a geometric progression with a factor of 2.
(§3) The inoculation of the dishes was carried out by means of a multiple inoculator with 10^-3 dilutions of 18 hour old broth cultures.
(§4) The dishes were placed in an oven at 37° C. and the readings were taken afer an incubation time of 18 hours. The M.I.C. was taken as the lowest concentration which inhibited a culture.

Staph. 209 P = test: M.I.C. in vitro, nutrient agar dilution; conditions: 18 h, read-out: M.I.C.
Procedure: as §1, §2, §3, §4

Klebs. pneum. 10.031 = test: M.I.C. in vitro, nutrient agar dilution; conditions: 18 h, read-out: M.I.C.
Procedure: as §1, §2, §3, §4

Providentia 0223 = test: M.I.C. in vitro, nutrient agar dilution; conditions: 18 h, read-out: M.I.C.
Procedure: as §1, §2, §3, §4

Pr. vulgaris 12-53 = test: M.I.C. in vitro, nutrient agar dilution; conditions: Proteus vulgaris, 1253, 18 h, read-out: M.I.C.
Procedure: as §1, §2, §3, §4

Staph. 9.144 = test: M.I.C. in vitro, nutrient agar dilution; conditions: 18 h, read-out: M.I.C.
Procedure: as §1, §2, §3, §4

Strepto D.M. 19 = test: M.I.C. in vitro, nutrient agar dilution; conditions: 18 h, read-out: M.I.C.
Procedure: as §1, §2, §3, §4

Pr. morganii A.236 = test: M.I.C. in vitro, nutrient agar dilution; conditions: Morganella morganii, 18 h, read-out: M.I.C.
Procedure: as §1, §2, §3, §4

Strepto A 561 = test: M.I.C. in vitro, nutrient agar dilution; conditions: 18 h
Procedure: as §1, §2, §3, §4

Serratia = test: M.I.C. in vitro, nutrient agar dilution; conditions: 18 h, read-out: M.I.C.
Procedure: as §1, §2, §3, §4

Pr. mirabilis Nig = test: M.I.C. in vitro, nutrient agar dilution; conditions: Proteus mirabilis, 18 h, read-out: M.I.C.
Procedure: as §1, §2, §3, §4

Ps. aeruginosa 72.345 = test: M.I.C. in vitro, nutrient agar dilution; conditions: Pseudomonas aeruginosa, 18 h, read-out: M.I.C.
Procedure: as §1, §2, §3, §4

S. oranienburg 1066 = test: M.I.C. in vitro, nutrient agar dilution; conditions: Salmonella enterica, 18 h, read-out: M.I.C.
Procedure: as §1, §2, §3, §4

Sh. sonnei I.P.S. = test: M.I.C. in vitro, nutrient agar dilution; conditions: Shigella sonnei, 18 h, read-out: M.I.C.
Procedure: as §1, §2, §3, §4

Bord. bronchis. 4.617 = test: M.I.C. in vitro, nutrient agar dilution; conditions: 18 h, read-out: M.I.C.
Procedure: as §1, §2, §3, §4

Ps. aeruginosa A.22 = test: M.I.C. in vitro, nutrient agar dilution; conditions: Pseudomonas aeruginosa, 18 h, read-out: M.I.C.
Procedure: as §1, §2, §3, §4

Arizona 6.211 = test: M.I.C. in vitro, nutrient agar dilution; conditions: 18 h, read-out: M.I.C.
Procedure: as §1, §2, §3, §4

B. subtilis = test: M.I.C. in vitro, nutrient agar dilution; conditions: Bacillus subtilis, 18 h, read-out: M.I.C.
Procedure: as §1, §2, §3, §4

Esch. coli 111 B4 = test: M.I.C. in vitro, nutrient agar dilution; conditions: Escherichia coli, 18 h
Procedure: as §1, §2, §3, §4

S. enteritidis Danysz = test: M.I.C. in vitro, nutrient agar dilution; conditions: Salmonella enterica, 18 h, read-out: M.I.C.
Procedure: as §1, §2, §3, §4

Esch. coli 54.127 O.M.S. = test: M.I.C. in vitro, nutrient agar dilution; conditions: Escherichia coli, 18 h, read-out: M.I.C.
Procedure: as §1, §2, §3, §4

Salm. typhi 0901 = test: microbe, parasite or virus in culture; conditions: Salmonella enterica, 18 h
Procedure: as §1, §2, §3, §4

[1] = Table 2, Esch. coli 95 I.S.M. (Gram negative)
[2] = Table 2, Staph. 209 P (Gram positive)
[3] = Table 2, Klebs. pneum. 10.031 (Gram negative)
[4] = Table 2, Providentia 0223 (Gram negative)
[5] = Table 2, Pr. vulgaris 12-53 (Gram negative)
[6] = Table 2, Staph. 9.144 (Gram positive)
[7] = Table 2, Strepto D.M. 19 (Gram positive)
[8] = Table 2, Pr. morganii A.236 (Gram negative)
[9] = Table 2, Strepto A 561 (Gram positive)
[10] = Table 2, Berratia (Gram negative)
[11] = Table 2, Pr. mirabilis Nig (Gram negative)
[12] = Table 2, Ps. aeruginosa 72.345 (Gram negative)
[13] = Table 2, S. oranienburg 1066 (Gram negative)
[14] = Table 2, Sh. sonnei I.P.S. (Gram negative)
[15] = Table 2, Bord. bronchis. 4.617 (Gram negative)
[16] = Table 2, Ps. aeruginosa A.22 (Gram negative)
[17] = Table 2, Arizona 6.211 (Gram negative)
[18] = Table 2, B. subtilis (Gram positive)
[19] = Table 2, Esch. coli 111 B4 (Gram negative)
[20] = Table 2, S. enteritidis Danysz (Gram negative)
[21] = Table 2, Esch. coli 54.127 O.M.S. (Gram negative)
[22] = Table 2, Salm. typhi 0901 (Gram negative)

## CN1CCN(c2cc3c(cc2F)c(=O)c(C(=O)O)cn3C)CC1 [Example 31, 6-Fluoro-1-methyl-7-(4-methylpiperazinyl)-4-oxo-1,4-dihydro-quinoline-3-carboxylic acid]
Esch. coli 95 I.S.M.; Table III, Esch. coli 95 I.S.M.
  MIC: 0.1 µg/mL (≈ 0.313 µM)
Staph. 209 P; Table III, Staph. 209 P
  MIC: 0.4 µg/mL (≈ 1.25 µM)
Klebs. pneum. 10.031; Table III, Klebs. pneum. 10.031
  MIC: 0.8 µg/mL (≈ 2.51 µM)
Providentia 0223; Table III, Providentia 0223
  MIC: 0.8 to 1.6 µg/mL (≈ 2.51 to 5.01 µM)
Pr. vulgaris 12-53; Table III, Pr. vulgaris 12-53
  MIC: 0.2 µg/mL (≈ 0.626 µM)
Staph. 9.144; Table III, Staph. 9.144
  MIC: 0.4 µg/mL (≈ 1.25 µM)
Strepto D.M. 19; Table III, Strepto D.M. 19
  MIC: 3.1 to 6.2 µg/mL (≈ 9.71 to 19.4 µM)
Pr. morganii A.236; Table III, Pr. morganii A. 236
  MIC: 0.2 µg/mL (≈ 0.626 µM)
Strepto A 561; Table III, Strepto A 561
  MIC: 12.5 µg/mL (≈ 39.1 µM)
Serratia; Table III
  MIC: 0.2 µg/mL (≈ 0.626 µM)
Pr. mirabilis Nig; Table III, Pr. mirabilis Nig
  MIC: 0.4 µg/mL (≈ 1.25 µM)
Ps. aeruginosa 72.345; Table III, Pd. aeruginosa 72.345
  MIC: 1.6 µg/mL (≈ 5.01 µM)
S. oranienburg 1066; Table III, S. oranienburg 1066
  MIC: 6.2 to 12.5 µg/mL (≈ 19.4 to 39.1 µM)
Sh. sonnei I.P.S.; Table III, Sh. sonnei I.P.S.
  MIC: 0.2 to 0.4 µg/mL (≈ 0.626 to 1.25 µM)
Bord. bronchis. 4.617; Table III, Bord. bronchis. 4.617
  MIC: 6.25 µg/mL (≈ 19.6 µM)
Ps. aeruginosa A.22; Table III, Ps. aeruginosa A.22
  MIC: 1.6 µg/mL (≈ 5.01 µM)
Arizona 6.211; Table III, Arizona 6.211
  MIC: 0.2 to 0.4 µg/mL (≈ 0.626 to 1.25 µM)
B. subtilis; Table III, B. Subtilis
  MIC: 0.8 µg/mL (≈ 2.51 µM)
Esch. coli 111 B4; Table III, Esch. coli 111 B4
  MIC: 0.8 µg/mL (≈ 2.51 µM)
S. enteritidis Danysz; Table III, S. enteritidis Danysz
  MIC: 0.4 µg/mL (≈ 1.25 µM)
Esch. coli 54.127 O.M.S.; Table III, Esch. coli 54.127 O.M.S.
  MIC: 0.8 µg/mL (≈ 2.51 µM)
Salm. typhi 0901; Table III, Salm. typhi 0901
  MIC: 0.4 µg/mL (≈ 1.25 µM)

## CCn1cc(C(=O)O)c(=O)c2cc(Cl)c(N3CCN(CCO)CC3)cc21 [Example 4, 6-chloro-1-ethyl-7-[4-(β-hydroxyethyl)-piperazinyl]-4-oxo-1,4-dihydro-quinoline-3-carboxylic acid]
Esch. coli 95 I.S.M.; [1]
  MIC: 1.6 µg/mL (≈ 4.21 µM)
Staph. 209 P; [2]
  MIC: 0.4 µg/mL (≈ 1.05 µM)
Klebs. pneum. 10.031; [3]
  MIC: 0.4 µg/mL (≈ 1.05 µM)
Providentia 0223; [4]
  MIC: 25 µg/mL (≈ 65.8 µM)
Pr. vulgaris 12-53; [5]
  MIC: 1.6 µg/mL (≈ 4.21 µM)
Staph. 9.144; [6]
  MIC: 0.4 µg/mL (≈ 1.05 µM)
Strepto D.M. 19; [7]
  MIC: 6.2 µg/mL (≈ 16.3 µM)
Pr. morganii A.236; [8]
  MIC: 1.6 µg/mL (≈ 4.21 µM)
Strepto A 561; [9]
  MIC: 6.2 µg/mL (≈ 16.3 µM)
Serratia; [10]
  MIC: 25 µg/mL (≈ 65.8 µM)
Pr. mirabilis Nig; [11]
  MIC: 3.1 µg/mL (≈ 8.16 µM)
Ps. aeruginosa 72.345; [12]
  MIC: 12.5 µg/mL (≈ 32.9 µM)
S. oranienburg 1066; [13]
  MIC: 25 µg/mL (≈ 65.8 µM)
Sh. sonnei I.P.S.; [14]
  MIC: 0.8 µg/mL (≈ 2.11 µM)
Bord. bronchis. 4.617; [15]
  MIC: 6.2 µg/mL (≈ 16.3 µM)
Ps. aeruginosa A.22; [16]
  MIC: 12.5 µg/mL (≈ 32.9 µM)
Arizona 6.211; [17]
  MIC: 1.6 µg/mL (≈ 4.21 µM)
B. subtilis; [18]
  MIC: 6.2 µg/mL (≈ 16.3 µM)
Esch. coli 111 B4; [19]
  MIC: 3.1 µg/mL (≈ 8.16 µM)
S. enteritidis Danysz; [20]
  MIC: 3.1 µg/mL (≈ 8.16 µM)
Esch. coli 54.127 O.M.S.; [21]
  MIC: 3.1 µg/mL (≈ 8.16 µM)
Salm. typhi 0901; [22]
  MIC: 3.1 µg/mL (≈ 8.16 µM)

## CCn1cc(C(=O)O)c(=O)c2ccc(N3CCN(C)CC3)cc21 [Example T1, 1-ethyl-7-(4-methylpiperazinyl)-4-oxo-1,4-dihydro-quinoline-3-carboxylic acid, reference compound]
Esch. coli 95 I.S.M.; [1]
  MIC: 0.8 µg/mL (≈ 2.54 µM)
Staph. 209 P; [2]
  MIC: 3.1 µg/mL (≈ 9.83 µM)
Klebs. pneum. 10.031; [3]
  MIC: 0.8 µg/mL (≈ 2.54 µM)
Providentia 0223; [4]
  MIC: 100 µg/mL (≈ 317 µM)
Pr. vulgaris 12-53; [5]
  MIC: 3.1 µg/mL (≈ 9.83 µM)
Staph. 9.144; [6]
  MIC: 6.2 µg/mL (≈ 19.7 µM)
Strepto D.M. 19; [7]
  MIC: 50 µg/mL (≈ 159 µM)
Pr. morganii A.236; [8]
  MIC: 0.8 µg/mL (≈ 2.54 µM)
Strepto A 561; [9]
  MIC: 50 µg/mL (≈ 159 µM)
Serratia; [10]
  MIC: 12.5 µg/mL (≈ 39.6 µM)
Pr. mirabilis Nig; [11]
  MIC: 3.1 µg/mL (≈ 9.83 µM)
Ps. aeruginosa 72.345; [12]
  MIC: 12.5 µg/mL (≈ 39.6 µM)
S. oranienburg 1066; [13]
  MIC: > 100 µg/mL
Sh. sonnei I.P.S.; [14]
  MIC: 1.6 µg/mL (≈ 5.07 µM)
Bord. bronchis. 4.617; [15]
  MIC: 25 µg/mL (≈ 79.3 µM)
Ps. aeruginosa A.22; [16]
  MIC: 12.5 µg/mL (≈ 39.6 µM)
Arizona 6.211; [17]
  MIC: 1.6 µg/mL (≈ 5.07 µM)
B. subtilis; [18]
  MIC: 1.6 µg/mL (≈ 5.07 µM)
Esch. coli 111 B4; [19]
  MIC: 1.6 µg/mL (≈ 5.07 µM)
S. enteritidis Danysz; [20]
  MIC: 3.1 µg/mL (≈ 9.83 µM)
Esch. coli 54.127 O.M.S.; [21]
  MIC: 1.6 µg/mL (≈ 5.07 µM)
Salm. typhi 0901; [22]
  MIC: 3.1 µg/mL (≈ 9.83 µM)
